Where two headings read alike, the source gives them in different places.
Key:
[1] = system: combination of HLA-B*1502 allele and HLA-B*3802 allele; conditions: in vivo
HLA-B*1502 allele = HLA-B*1502 allele (Homo sapiens, UniProt P01889, A329T/A93T/A95T/C349S/D201E/D98Y/E187L/E204Q/E69M/E70A/H137Y/K202T/L119I/Q94N/R155S/R180L/S121R/S35A/S48A/T118I/V306I/V36M/Y140S/Y91S); conditions: HLA-B*15:02
[2] = system: combination of HLA-B*1301 allele, HLA-B*3802 allele and HLA-B*3901 allele; conditions: in vivo
[3] = system: combination of HLA-B*1301 allele and HLA-B*3901 allele; conditions: in vivo
[4] = patients taking sulfasalazine; clinical setting; cited from earlier work
HLA-B*3802 allele = HLA-B*3802 allele (Homo sapiens, UniProt P01889, A182T/A93T/A95T/C349S/D138N/D201E/D98Y/E176V/E187T/E204Q/G107R/K202T/L105A/N104T/Q94N/R106L/R155S/R180L/S101N/S121R/Y140F/Y91C); conditions: HLA-B*38:02
[5] = system: combination of HLA-B*1301 allele, HLA-B*1502 allele, HLA-B*3802 allele and HLA-B*3901 allele; conditions: in vivo
HLA-B*1301 allele = HLA-B*1301 allele (Homo sapiens, UniProt P01889, A65T/A93T/A95T/D138N/D201E/D98Y/E176V/E204Q/E69M/E70A/G107R/K202T/L105A/L119I/N104T/N87E/Q94N/R106L/R155S/R169L/R180L/S101N/S121R/S35A/S48T/T118I/V127L/V36M/Y140L/Y91S); conditions: HLA-B*13:01
HLA-B*3901 allele = HLA-B*3901 allele (Homo sapiens, UniProt P01889, A182T/A93T/A95T/C349S/D138N/D201E/E176V/E187T/E204Q/K202T/Q94N/R155S/R180L/S121R/Y140F/Y91C); conditions: HLA-B*39:01
[6] = Sulfasalazine-DRESS vs healthy control
[7] = Sulfasalazine-SCAR vs healthy control
[8] = Sulfasalazine-SJS/TEN patients, listed as sulfasalazine
[9] = Sulfasalazine-SJS/TEN vs healthy control
[10] = Sulfasalazine-SJS/TEN vs healthy control, listed as sulfasalazine
[11] = Sulfasalazine-DRESS patients, listed as sulfasalazine
[12] = Sulfasalazine-DRESS vs healthy control, listed as sulfasalazine

O=C(O)c1cc(/N=N/c2ccc(S(=O)(=O)Nc3ccccn3)cc2)ccc1O [Sulfasalazine]
Specificity (%) [1]: 83.74% | Sensitivity (%) (HLA-B*1502 allele; Sulfasalazine-DRESS): 9.53% | Specificity (%) (HLA-B*1502 allele; Sulfasalazine-DRESS): 90.75% | SCAR N (%) carrying the allele (HLA-B*1502 allele; Sulfasalazine-DRESS patients): 2/21 | Odds Ratio (95% CI) (HLA-B*1502 allele; [6]): 1.0 | Sensitivity (%) (HLA-B*1502 allele; Sulfasalazine-SCAR): 21.88% | Specificity (%) (HLA-B*1502 allele; Sulfasalazine-SCAR): 90.75% | SCAR N (%) carrying the allele (HLA-B*1502 allele; Sulfasalazine-SCAR patients): 7/32 | Odds Ratio (95% CI) (HLA-B*1502 allele; [7]): 2.7 | Sensitivity (%) (HLA-B*1502 allele; Sulfasalazine-SJS/TEN): 45.45% | Specificity (%) (HLA-B*1502 allele; Sulfasalazine-SJS/TEN): 90.75% | SCAR N (%) carrying the allele (HLA-B*1502 allele; Sulfasalazine-SJS/TEN patients): 5/11 | SCAR N (%) carrying the allele (HLA-B*1502 allele; [8]): 5 out of 11 | Odds Ratio (95% CI) (HLA-B*1502 allele; [9]): 8.2 | Odds Ratio (95% CI) (HLA-B*1502 allele; [10]): 8.2 (2.4-27.4) | SCAR N (%) carrying the alleles [2]: 22/32 | Sensitivity (%) [2]: 68.75% | Specificity (%) [2]: 78.32% | Specificity (%) [3]: 83.95% | patients developing obvious side effects [4]: Approximately 25% | Sensitivity (%) (HLA-B*3802 allele; Sulfasalazine-DRESS): 0% | Specificity (%) (HLA-B*3802 allele; Sulfasalazine-DRESS): 92.45% | SCAR N (%) carrying the allele (HLA-B*3802 allele; Sulfasalazine-DRESS patients): 0/21 | Odds Ratio (95% CI) (HLA-B*3802 allele; [6]): 0.3 | Sensitivity (%) (HLA-B*3802 allele; Sulfasalazine-SCAR): 18.75% | Specificity (%) (HLA-B*3802 allele; Sulfasalazine-SCAR): 92.45% | SCAR N (%) carrying the allele (HLA-B*3802 allele; Sulfasalazine-SCAR patients): 6/32 | Odds Ratio (95% CI) (HLA-B*3802 allele; [7]): 2.8 | Sensitivity (%) (HLA-B*3802 allele; Sulfasalazine-SJS/TEN): 54.54% | Specificity (%) (HLA-B*3802 allele; Sulfasalazine-SJS/TEN): 92.45% | SCAR N (%) carrying the allele (HLA-B*3802 allele; Sulfasalazine-SJS/TEN patients): 6/11 | SCAR N (%) carrying the allele (HLA-B*3802 allele; [8]): 6 out of 11 | Odds Ratio (95% CI) (HLA-B*3802 allele; [9]): 14.7 | Odds Ratio (95% CI) (HLA-B*3802 allele; [10]): 14.7 (4.4-49.4) | SCAR N (%) carrying the alleles [5]: 24/32 | Sensitivity (%) [5]: 75.00% | Specificity (%) [5]: 60.35% | Sensitivity (%) (HLA-B*1301 allele; Sulfasalazine-DRESS): 38.10% | Specificity (%) (HLA-B*1301 allele; Sulfasalazine-DRESS): 87.89% | SCAR N (%) carrying the allele (HLA-B*1301 allele; Sulfasalazine-DRESS patients): 8/21 | SCAR N (%) carrying the allele (HLA-B*1301 allele; [11]): 8 of 21 | Odds Ratio (95% CI) (HLA-B*1301 allele; [6]): 4.5 | Odds Ratio (95% CI) (HLA-B*1301 allele; [12]): 4.5 (1.8-11.0) | Sensitivity (%) (HLA-B*1301 allele; Sulfasalazine-SCAR): 28.13% | Specificity (%) (HLA-B*1301 allele; Sulfasalazine-SCAR): 87.89% | SCAR N (%) carrying the allele (HLA-B*1301 allele; Sulfasalazine-SCAR patients): 9/32 | Odds Ratio (95% CI) (HLA-B*1301 allele; [7]): 2.8 | Sensitivity (%) (HLA-B*1301 allele; Sulfasalazine-SJS/TEN): 9.09% | Specificity (%) (HLA-B*1301 allele; Sulfasalazine-SJS/TEN): 87.89% | SCAR N (%) carrying the allele (HLA-B*1301 allele; Sulfasalazine-SJS/TEN patients): 1/11 | Odds Ratio (95% CI) (HLA-B*1301 allele; [9]): 0.7 | Sensitivity (%) (HLA-B*3901 allele; Sulfasalazine-DRESS): 38.10% | Specificity (%) (HLA-B*3901 allele; Sulfasalazine-DRESS): 95.43% | SCAR N (%) carrying the allele (HLA-B*3901 allele; Sulfasalazine-DRESS patients): 8/21 | SCAR N (%) carrying the allele (HLA-B*3901 allele; [11]): 8 of 21 | Odds Ratio (95% CI) (HLA-B*3901 allele; [6]): 12.2 | Odds Ratio (95% CI) (HLA-B*3901 allele; [12]): 12.2 (4.6-32.5) | Sensitivity (%) (HLA-B*3901 allele; Sulfasalazine-SCAR): 28.13% | Specificity (%) (HLA-B*3901 allele; Sulfasalazine-SCAR): 95.43% | SCAR N (%) carrying the allele (HLA-B*3901 allele; Sulfasalazine-SCAR patients): 9/32 | Odds Ratio (95% CI) (HLA-B*3901 allele; [7]): 8.2 | Sensitivity (%) (HLA-B*3901 allele; Sulfasalazine-SJS/TEN): 0% | Specificity (%) (HLA-B*3901 allele; Sulfasalazine-SJS/TEN): 95.43% | SCAR N (%) carrying the allele (HLA-B*3901 allele; Sulfasalazine-SJS/TEN patients): 0/11 | Odds Ratio (95% CI) (HLA-B*3901 allele; [9]): 1.1
